Measured values published in ChEMBL document CHEMBL1132828, “Pharmacophore identification of a specific CXCR4 inhibitor, T140, leads to development of effective anti-HIV agents with very high selectivity indexes” (Bioorg Med Chem Lett, 2000).
Where a SMILES comes first, the peptide text is derived from it. Bridges are numbered along the chain shown (N, C = ends). [ ]: non-standard residue; d: D form. 2Nal = N[C@@H](Cc1ccc2ccccc2c1)C(=O)O; Cit = NC(=O)NCCC[C@H](N)C(=O)O

Columns and labels:
MT4 [1] = assay: Compound was tested for reduction of the viability of mock infected MT-4 cell in test-II; type: functional; settings: Homo sapiens
MT4 [2] = assay: Compound was tested for reduction of the viability of mock infected MT-4 cell in test-I; type: functional; settings: Homo sapiens
[3] = Ratio of cytotoxic concentration (CC50) in test-II to that of EC50 of compound; type: functional, Homo sapiens
[4] = Ratio of cytotoxic concentration (CC50) in test-I to that of EC50 of compound; type: functional, Homo sapiens

Structure (SMILES) | CC50 (MT4 [1]) [µM] | CC50 (MT4 [2]) [µM] | Ratio [3] | Ratio [4]
NCCCC[C@@H]1NC(=O)[C@H](CCCN=C(N)N)NC(=O)[C@H](Cc2ccc(O)cc2)NC(=O)[C@@H](NC(=O)[C@H](Cc2ccc3ccccc3c2)NC(=O)[C@H](CCCN=C(N)N)NC(=O)[C@@H](N)CCCN=C(N)N)CSSC[C@@H](C(=O)N[C@@H](CCCN=C(N)N)C(=O)O)NC(=O)[C@H](CCCNC(N)=O)NC(=O)[C@H](CCCNC(N)=O)NC(=O)[C@H](Cc2ccc(O)cc2)NC(=O)[C@@H]2CCCN2C(=O)[C@@H](CCCCN)NC1=O | 310 | > 80 | 20000 | >5300
C[C@H](NC(=O)[C@@H]1CSSC[C@H](NC(=O)[C@H](Cc2ccc3ccccc3c2)NC(=O)[C@H](CCCN=C(N)N)NC(=O)[C@@H](N)CCCN=C(N)N)C(=O)N[C@@H](Cc2ccc(O)cc2)C(=O)N[C@@H](CCCN=C(N)N)C(=O)N[C@@H](CCCCN)C(=O)N[C@H](CCCCN)C(=O)N2CCC[C@H]2C(=O)N[C@@H](Cc2ccc(O)cc2)C(=O)N[C@@H](CCCN=C(N)N)C(=O)N[C@@H](CCCNC(N)=O)C(=O)N1)C(=O)O |  | > 80 |  | >210
C[C@@H]1NC(=O)[C@@H]2CCCN2C(=O)[C@@H](CCCCN)NC(=O)[C@H](CCCCN)NC(=O)[C@H](CCCN=C(N)N)NC(=O)[C@H](Cc2ccc(O)cc2)NC(=O)[C@@H](NC(=O)[C@H](Cc2ccc3ccccc3c2)NC(=O)[C@H](CCCN=C(N)N)NC(=O)[C@@H](N)CCCN=C(N)N)CSSC[C@@H](C(=O)N[C@@H](CCCN=C(N)N)C(=O)O)NC(=O)[C@H](CCCNC(N)=O)NC(=O)[C@H](CCCN=C(N)N)NC1=O |  | > 80 |  | >4500
NCCCC[C@@H]1NC(=O)[C@H](CCCN=C(N)N)NC(=O)[C@H](Cc2ccc(O)cc2)NC(=O)[C@@H](NC(=O)[C@H](Cc2ccc3ccccc3c2)NC(=O)[C@H](CCCN=C(N)N)NC(=O)[C@@H](N)CCCN=C(N)N)CSSC[C@@H](C(=O)N[C@@H](CCCN=C(N)N)C(=O)O)NC(=O)[C@H](CCCNC(N)=O)NC(=O)[C@H](CCCN=C(N)N)NC(=O)[C@H](Cc2ccc(O)cc2)NC(=O)[C@@H]2CCCN2C(=O)[C@@H](CCCCN)NC1=O (H-RR[2Nal]CYRK[dK]PYR[Cit]CR-OH; disulfide 4-13) | 96 | > 1 | 29000 | >>300
C[C@@H]1NC(=O)[C@H](CCCN=C(N)N)NC(=O)[C@H](Cc2ccc(O)cc2)NC(=O)[C@@H](NC(=O)[C@H](Cc2ccc3ccccc3c2)NC(=O)[C@H](CCCN=C(N)N)NC(=O)[C@@H](N)CCCN=C(N)N)CSSC[C@@H](C(=O)N[C@@H](CCCN=C(N)N)C(=O)O)NC(=O)[C@H](CCCNC(N)=O)NC(=O)[C@H](CCCN=C(N)N)NC(=O)[C@H](Cc2ccc(O)cc2)NC(=O)[C@@H]2CCCN2C(=O)[C@@H](CCCCN)NC1=O |  | > 80 |  | >1800
NCCCC[C@@H]1NC(=O)[C@H](CCCN=C(N)N)NC(=O)[C@H](Cc2ccc(O)cc2)NC(=O)[C@@H](NC(=O)[C@H](Cc2ccc3ccccc3c2)NC(=O)[C@H](CCCN=C(N)N)NC(=O)[C@@H](N)CCCN=C(N)N)CSSC[C@@H](C(=O)N[C@@H](CCCN=C(N)N)C(=O)O)NC(=O)[C@H](CCCNC(N)=O)NC(=O)[C@H](CCCN=C(N)N)NC(=O)[C@H](Cc2ccc(O)cc2)NC(=O)[C@@H]2CCCN2C(=O)[C@@H](CCCNC(N)=O)NC1=O | 280 | > 80 | 69000 | >20000
CC(N)C(=O)N[C@@H](CCCN=C(N)N)C(=O)N[C@@H](Cc1ccc2ccccc2c1)C(=O)N[C@H]1CSSC[C@@H](C(=O)N[C@@H](CCCN=C(N)N)C(=O)O)NC(=O)[C@H](CCCNC(N)=O)NC(=O)[C@H](CCCN=C(N)N)NC(=O)[C@H](Cc2ccc(O)cc2)NC(=O)[C@@H]2CCCN2C(=O)[C@@H](CCCCN)NC(=O)[C@H](CCCCN)NC(=O)[C@H](CCCN=C(N)N)NC(=O)[C@H](Cc2ccc(O)cc2)NC1=O (stereo not given in full) |  | > 40 |  | >750
C[C@H](NC(=O)[C@H](CCCN=C(N)N)NC(=O)[C@@H](N)CCCN=C(N)N)C(=O)N[C@H]1CSSC[C@@H](C(=O)N[C@@H](CCCN=C(N)N)C(=O)O)NC(=O)[C@H](CCCNC(N)=O)NC(=O)[C@H](CCCN=C(N)N)NC(=O)[C@H](Cc2ccc(O)cc2)NC(=O)[C@@H]2CCCN2C(=O)[C@@H](CCCCN)NC(=O)[C@H](CCCCN)NC(=O)[C@H](CCCN=C(N)N)NC(=O)[C@H](Cc2ccc(O)cc2)NC1=O |  | > 80 |  | >34
C[C@@H]1NC(=O)[C@@H](CCCCN)NC(=O)[C@H](CCCCN)NC(=O)[C@H](CCCN=C(N)N)NC(=O)[C@H](Cc2ccc(O)cc2)NC(=O)[C@@H](NC(=O)[C@H](Cc2ccc3ccccc3c2)NC(=O)[C@H](CCCN=C(N)N)NC(=O)[C@@H](N)CCCN=C(N)N)CSSC[C@@H](C(=O)N[C@@H](CCCN=C(N)N)C(=O)O)NC(=O)[C@H](CCCNC(N)=O)NC(=O)[C@H](CCCN=C(N)N)NC(=O)[C@H](Cc2ccc(O)cc2)NC1=O (H-RR[2Nal]CYRK[dK]AYR[Cit]CR-OH; disulfide 4-13) |  | > 80 |  | >4700
C[C@@H]1NC(=O)[C@@H](NC(=O)[C@H](Cc2ccc3ccccc3c2)NC(=O)[C@H](CCCN=C(N)N)NC(=O)[C@@H](N)CCCN=C(N)N)CSSC[C@@H](C(=O)N[C@@H](CCCN=C(N)N)C(=O)O)NC(=O)[C@H](CCCNC(N)=O)NC(=O)[C@H](CCCN=C(N)N)NC(=O)[C@H](Cc2ccc(O)cc2)NC(=O)[C@@H]2CCCN2C(=O)[C@@H](CCCCN)NC(=O)[C@H](CCCCN)NC(=O)[C@H](CCCN=C(N)N)NC1=O |  | > 80 |  | >230
NCCCC[C@@H]1NC(=O)[C@H](CCCN=C(N)N)NC(=O)[C@H](Cc2ccc(O)cc2)NC(=O)[C@@H](NC(=O)[C@H](Cc2ccc3ccccc3c2)NC(=O)[C@H](CCCN=C(N)N)NC(=O)[C@@H](N)CCCNC(N)=O)CSSC[C@@H](C(=O)N[C@@H](CCCN=C(N)N)C(=O)O)NC(=O)[C@H](CCCNC(N)=O)NC(=O)[C@H](CCCN=C(N)N)NC(=O)[C@H](Cc2ccc(O)cc2)NC(=O)[C@@H]2CCCN2C(=O)[C@@H](CCCCN)NC1=O | 280 | > 80 | 18000 | >5300
NCCCC[C@@H]1NC(=O)[C@H](CCCN=C(N)N)NC(=O)[C@H](Cc2ccc(O)cc2)NC(=O)[C@@H](NC(=O)[C@H](Cc2c[nH]c3ccccc23)NC(=O)[C@H](CCCN=C(N)N)NC(=O)[C@@H](N)CCCN=C(N)N)CSSC[C@@H](C(=O)N[C@@H](CCCN=C(N)N)C(=O)O)NC(=O)[C@H](CCCNC(N)=O)NC(=O)[C@H](CCCN=C(N)N)NC(=O)[C@H](Cc2ccc(O)cc2)NC(=O)[C@@H]2CCCN2C(=O)[C@@H](CCCCN)NC1=O | 190 | > 1 | 23000 | >>120
NCCCC[C@@H]1NC(=O)[C@H](CCCN=C(N)N)NC(=O)[C@H](Cc2ccc(O)cc2)NC(=O)[C@@H](NC(=O)[C@H](Cc2ccc3ccccc3c2)NC(=O)[C@H](CCCN=C(N)N)NC(=O)[C@@H](N)CCCN=C(N)N)CSSC[C@@H](C(=O)N[C@@H](CCCNC(N)=O)C(=O)O)NC(=O)[C@H](CCCNC(N)=O)NC(=O)[C@H](CCCN=C(N)N)NC(=O)[C@H](Cc2ccc(O)cc2)NC(=O)[C@@H]2CCCN2C(=O)[C@@H](CCCCN)NC1=O | 180 | > 40 | 200 | >220
NCCCC[C@@H]1NC(=O)[C@H](CCCN=C(N)N)NC(=O)[C@H](Cc2ccc(O)cc2)NC(=O)[C@@H](NC(=O)[C@H](Cc2ccc3ccccc3c2)NC(=O)[C@H](CCCNC(N)=O)NC(=O)[C@@H](N)CCCN=C(N)N)CSSC[C@@H](C(=O)N[C@@H](CCCN=C(N)N)C(=O)O)NC(=O)[C@H](CCCNC(N)=O)NC(=O)[C@H](CCCN=C(N)N)NC(=O)[C@H](Cc2ccc(O)cc2)NC(=O)[C@@H]2CCCN2C(=O)[C@@H](CCCCN)NC1=O | 260 | > 80 | 570 | >180
C[C@@H]1NC(=O)[C@H](Cc2ccc(O)cc2)NC(=O)[C@@H]2CCCN2C(=O)[C@@H](CCCCN)NC(=O)[C@H](CCCCN)NC(=O)[C@H](CCCN=C(N)N)NC(=O)[C@H](Cc2ccc(O)cc2)NC(=O)[C@@H](NC(=O)[C@H](Cc2ccc3ccccc3c2)NC(=O)[C@H](CCCN=C(N)N)NC(=O)[C@@H](N)CCCN=C(N)N)CSSC[C@@H](C(=O)N[C@@H](CCCN=C(N)N)C(=O)O)NC(=O)[C@H](CCCNC(N)=O)NC1=O |  | > 80 |  | >4800
C[C@H]1NC(=O)[C@H](CCCCN)NC(=O)[C@H](CCCN=C(N)N)NC(=O)[C@H](Cc2ccc(O)cc2)NC(=O)[C@@H](NC(=O)[C@H](Cc2ccc3ccccc3c2)NC(=O)[C@H](CCCN=C(N)N)NC(=O)[C@@H](N)CCCN=C(N)N)CSSC[C@@H](C(=O)N[C@@H](CCCN=C(N)N)C(=O)O)NC(=O)[C@H](CCCNC(N)=O)NC(=O)[C@H](CCCN=C(N)N)NC(=O)[C@H](Cc2ccc(O)cc2)NC(=O)[C@@H]2CCCN2C1=O |  | > 80 |  | >5200
C[C@H](NC(=O)[C@@H](N)CCCN=C(N)N)C(=O)N[C@@H](Cc1ccc2ccccc2c1)C(=O)N[C@H]1CSSC[C@@H](C(=O)N[C@@H](CCCN=C(N)N)C(=O)O)NC(=O)[C@H](CCCNC(N)=O)NC(=O)[C@H](CCCN=C(N)N)NC(=O)[C@H](Cc2ccc(O)cc2)NC(=O)[C@@H]2CCCN2C(=O)[C@@H](CCCCN)NC(=O)[C@H](CCCCN)NC(=O)[C@H](CCCN=C(N)N)NC(=O)[C@H](Cc2ccc(O)cc2)NC1=O |  | > 80 |  | >64
C[C@@H]1NC(=O)[C@H](CCCN=C(N)N)NC(=O)[C@H](Cc2ccc(O)cc2)NC(=O)[C@@H]2CCCN2C(=O)[C@@H](CCCCN)NC(=O)[C@H](CCCCN)NC(=O)[C@H](CCCN=C(N)N)NC(=O)[C@H](Cc2ccc(O)cc2)NC(=O)[C@@H](NC(=O)[C@H](Cc2ccc3ccccc3c2)NC(=O)[C@H](CCCN=C(N)N)NC(=O)[C@@H](N)CCCN=C(N)N)CSSC[C@@H](C(=O)N[C@@H](CCCN=C(N)N)C(=O)O)NC1=O |  | 55 |  | 3300
